Data as given in patent US6875451B2, “Compositions and methods for the treatment of primary and metastatic neoplastic diseases using arsenic compounds” (PolaRx Biopharmaceuticals Inc., priority 1997, dated 2005).

Columns and labels:
Type in all cases: cell-based
DU-145 = assay: SRB growth assay, 2 days exposure, prostate cancer
Procedure: (§1) Arsenic trioxide (1 mg/ml, 10 mg/ampoule, manufactured by Taylor Pharmaceuticals, Decatur, Ill.) was tested at five concentrations each at 10-fold dilutions, i.e., 10^−5, 10^−6, 10^−7, 10^−8 and 10^−9 μg/ml.
(§2) The in vitro tests were performed by incubating the test cells in the presence of the indicated concentration of arsenic trioxide under standard culture conditions for a designated period of time, which is followed by a sulforhodamine B (SRB) protein assay to estimate cell viability or growth. The cell lines are organized into subpanels according to the origin of the cell lines, e.g., leukemia, breast cancer, etc. A description of the cell lines and method of testing is described in Monk et al. (1997, Anticancer Drug Des. 12:533-41) and Weinstein et al., (1997, Science 275:343-9), which are incorporated herein in their entirety.
(§3) The measurement of an effect is expressed in Percentage Growth (PG). The measured effect of the compound on a cell line is calculated according to one or the other of the following two expressions: If (Mean ODtest−Mean ODzero)≧0. then PG=100×(Mean ODtest−Mean ODzero)/(Mean ODctrl−Mean ODzero) If (Mean ODtest−Mean ODzero)<0. then PG=100×(Mean ODtest−Mean ODzero)/(Mean ODzero where: • Mean ODzero=the average of optical density measurements of SRB-derived color just before exposure of cells to the test compounds; • Mean ODtest=the average of optical density measurements of SRB-derived color after exposure of cells to the test compound for a designated period of time; and • Mean ODctrl=the average of optical density measurements of SRB-derived color after with no exposure of cells to the test compound for a designated period of time
(§4) The first two columns describe the subpanel (e.g., leukemia) and cell line (e.g., CCRF-CEM) involved. The next two columns list the Mean ODzero and Mean ODctrl; the next five columns list the Mean ODtest for each of five different concentrations. Each concentration is expressed as the log10 (molar or μg/ml). The next five columns list the calculated PGs for each concentration. The response parameters GI50, TGI and LC50 are interpolated values representing the concentrations at which the PG is +50, 0, and −50, respectively. Sometimes these response parameters cannot be obtained by interpolation. If, for instance, all of the PGs in a given row exceed +50, then none of the three parameters can be obtained by interpolation. In such a case, the value given for each response parameter is the highest concentration tested and is preceded by a “>” sign. This practice is extended similarly to the other possible situations where a response parameter cannot be obtained by interpolation.
(§5) In the first set, the cells from 56 different cancer cell lines were exposed to five concentrations of arsenic trioxide continuously for two days prior to performing the SRB assay. In the second set, the cells from 50 different cell lines (a subset of the first 56 cell lines, plus the renal cancer cell line 786-0) were exposed continuously for six days prior to the SRB assay.

PC-3 = assay: SRB growth assay, 2 days exposure, prostate cancer
Procedure: as §1, §2, §3, §4, §5

HOP-92 = assay: SRB growth assay, 6 days exposure, non-small cell lung cancer; settings: HOP-92, 6 days
Procedure: as §1, §2, §3, §4, §5

NCI-H460 = assay: as above; settings: NCI-H460, 6 days
Procedure: as §1, §2, §3, §4, §5

NCI-H522 = assay: as above; settings: NCI-H522, 6 days
Procedure: as §1, §2, §3, §4, §5

HCT-116 = assay: SRB growth assay, 6 days exposure, colon cancer; settings: HCT-116, 6 days
Procedure: as §1, §2, §3, §4, §5

HCT-15 = assay: SRB growth assay, 6 days exposure, colon cancer; settings: HCT-15, 6 days
Procedure: as §1, §2, §3, §4, §5

HT29 = assay: SRB growth assay, 6 days exposure, colon cancer; settings: HT29, 6 days
Procedure: as §1, §2, §3, §4, §5

[1] = read-out: LC50 (the source's name)

Question: How did the TGI (DU-145) turn out when arsenic trioxide was run?
Answer: >0.0126 ng/mL

Question: What about the “Percent Growth” value (DU-145; log10 conc −4.9) of the same substance?
Answer: 64%

Question: And the “Percent Growth” value (DU-145; log10 conc −5.9)?
Answer: 96%

Question: And the “Percent Growth” value (DU-145; log10 conc −6.9)?
Answer: 106%

Question: And the “Percent Growth” value (DU-145; log10 conc −7.9)?
Answer: 131%

Question: And the “Percent Growth” value (DU-145; log10 conc −8.9)?
Answer: 91%

Question: And the TGI (PC-3)?
Answer: 0.011 ng/mL

Question: What about the “Percent Growth” value (PC-3; log10 conc −4.9) of the same substance?
Answer: −4%

Question: And the “Percent Growth” value (PC-3; log10 conc −5.9)?
Answer: 67%

Question: What about the “Percent Growth” value (PC-3; log10 conc −6.9) of the same substance?
Answer: 88%

Question: What about the “Percent Growth” value (PC-3; log10 conc −7.9) of the same substance?
Answer: 91%

Question: What about the “Percent Growth” value (PC-3; log10 conc −8.9) of the same substance?
Answer: 103%

Question: What about the “Mean Optical Densities” value (HOP-92; Log 10 Concentration −4.9) of the same substance?
Answer: 0.079

Question: And the “Percent Growth” value (HOP-92; Log 10 Concentration −4.9)?
Answer: −31%

Question: What about the “Mean Optical Densities” value (HOP-92; Log 10 Concentration −5.9) of the same substance?
Answer: 1.229

Question: What about the “Percent Growth” value (HOP-92; Log 10 Concentration −5.9) of the same substance?
Answer: 95%

Question: What about the “Mean Optical Densities” value (HOP-92; Log 10 Concentration −6.9) of the same substance?
Answer: 1.319

Question: And the “Percent Growth” value (HOP-92; Log 10 Concentration −6.9)?
Answer: 102%

Question: What about the “Mean Optical Densities” value (HOP-92; Log 10 Concentration −7.9) of the same substance?
Answer: 1.834

Question: What about the “Percent Growth” value (HOP-92; Log 10 Concentration −7.9) of the same substance?
Answer: 146%

Question: What about the “Mean Optical Densities” value (HOP-92; Log 10 Concentration −8.9) of the same substance?
Answer: 1.455

Question: And the “Percent Growth” value (HOP-92; Log 10 Concentration −8.9)?
Answer: 114%

Question: And the CC50 (HOP-92; [1])?
Answer: > 12.6 µM

Question: What about the “Mean Optical Densities” value (NCI-H460; Log 10 Concentration −4.9) of the same substance?
Answer: 0.062

Question: What about the “Percent Growth” value (NCI-H460; Log 10 Concentration −4.9) of the same substance?
Answer: 1%

Question: What about the “Mean Optical Densities” value (NCI-H460; Log 10 Concentration −5.9) of the same substance?
Answer: 2.535

Question: What about the “Percent Growth” value (NCI-H460; Log 10 Concentration −5.9) of the same substance?
Answer: 89%

Question: What about the “Mean Optical Densities” value (NCI-H460; Log 10 Concentration −6.9) of the same substance?
Answer: 2.792

Question: What about the “Percent Growth” value (NCI-H460; Log 10 Concentration −6.9) of the same substance?
Answer: 98%

Question: And the “Mean Optical Densities” value (NCI-H460; Log 10 Concentration −7.9)?
Answer: 2.806

Question: What about the “Percent Growth” value (NCI-H460; Log 10 Concentration −7.9) of the same substance?
Answer: 99%

Question: And the “Mean Optical Densities” value (NCI-H460; Log 10 Concentration −8.9)?
Answer: 2.797

Question: What about the “Percent Growth” value (NCI-H460; Log 10 Concentration −8.9) of the same substance?
Answer: 99%

Question: What about the CC50 (NCI-H460; [1]) of the same substance?
Answer: > 12.6 µM

Question: What about the “Mean Optical Densities” value (NCI-H522; Log 10 Concentration −4.9) of the same substance?
Answer: 0.028

Question: And the “Percent Growth” value (NCI-H522; Log 10 Concentration −4.9)?
Answer: −84%

Question: What about the “Mean Optical Densities” value (NCI-H522; Log 10 Concentration −5.9) of the same substance?
Answer: 0.128

Question: And the “Percent Growth” value (NCI-H522; Log 10 Concentration −5.9)?
Answer: −27%

Question: And the “Mean Optical Densities” value (NCI-H522; Log 10 Concentration −6.9)?
Answer: 1.191

Question: And the “Percent Growth” value (NCI-H522; Log 10 Concentration −6.9)?
Answer: 97%

Question: What about the “Mean Optical Densities” value (NCI-H522; Log 10 Concentration −7.9) of the same substance?
Answer: 0.535

Question: What about the “Percent Growth” value (NCI-H522; Log 10 Concentration −7.9) of the same substance?
Answer: 34%

Question: And the “Mean Optical Densities” value (NCI-H522; Log 10 Concentration −8.9)?
Answer: 1.269

Question: And the “Percent Growth” value (NCI-H522; Log 10 Concentration −8.9)?
Answer: 104%

Question: And the TGI (HCT-116)?
Answer: >1.26E−05

Question: And the “Mean Optical Densities” value (HCT-116; Log 10 Concentration −4.9)?
Answer: 1.931

Question: And the “Percent Growth” value (HCT-116; Log 10 Concentration −4.9)?
Answer: 56%

Question: And the “Mean Optical Densities” value (HCT-116; Log 10 Concentration −5.9)?
Answer: 3.284

Question: And the “Percent Growth” value (HCT-116; Log 10 Concentration −5.9)?
Answer: 96%

Question: And the “Mean Optical Densities” value (HCT-116; Log 10 Concentration −6.9)?
Answer: 3.381

Question: What about the “Percent Growth” value (HCT-116; Log 10 Concentration −6.9) of the same substance?
Answer: 99%

Question: And the “Mean Optical Densities” value (HCT-116; Log 10 Concentration −7.9)?
Answer: 3.289

Question: What about the “Percent Growth” value (HCT-116; Log 10 Concentration −7.9) of the same substance?
Answer: 96%

Question: And the “Mean Optical Densities” value (HCT-116; Log 10 Concentration −8.9)?
Answer: 3.395

Question: And the “Percent Growth” value (HCT-116; Log 10 Concentration −8.9)?
Answer: 99%

Question: What about the CC50 (HCT-116; [1]) of the same substance?
Answer: > 12.6 µM

Question: What about the TGI (HCT-15) of the same substance?
Answer: >1.26E−05

Question: And the “Mean Optical Densities” value (HCT-15; Log 10 Concentration −4.9)?
Answer: 0.404

Question: And the “Percent Growth” value (HCT-15; Log 10 Concentration −4.9)?
Answer: 10%

Question: And the “Mean Optical Densities” value (HCT-15; Log 10 Concentration −5.9)?
Answer: 3.432

Question: What about the “Percent Growth” value (HCT-15; Log 10 Concentration −5.9) of the same substance?
Answer: 89%

Question: What about the “Mean Optical Densities” value (HCT-15; Log 10 Concentration −6.9) of the same substance?
Answer: 4.227

Question: What about the “Percent Growth” value (HCT-15; Log 10 Concentration −6.9) of the same substance?
Answer: 110%

Question: And the “Mean Optical Densities” value (HCT-15; Log 10 Concentration −7.9)?
Answer: 3.921

Question: What about the “Percent Growth” value (HCT-15; Log 10 Concentration −7.9) of the same substance?
Answer: 102%

Question: And the “Mean Optical Densities” value (HCT-15; Log 10 Concentration −8.9)?
Answer: 3.965

Question: And the “Percent Growth” value (HCT-15; Log 10 Concentration −8.9)?
Answer: 103%

Question: What about the CC50 (HCT-15; [1]) of the same substance?
Answer: > 12.6 µM

Question: What about the TGI (HT29) of the same substance?
Answer: >1.26E−05

Question: What about the “Mean Optical Densities” value (HT29; Log 10 Concentration −4.9) of the same substance?
Answer: 0.027

Question: What about the “Percent Growth” value (HT29; Log 10 Concentration −4.9) of the same substance?
Answer: 0%

Question: And the “Mean Optical Densities” value (HT29; Log 10 Concentration −5.9)?
Answer: 1.476

Question: What about the “Percent Growth” value (HT29; Log 10 Concentration −5.9) of the same substance?
Answer: 48%

Question: And the “Mean Optical Densities” value (HT29; Log 10 Concentration −6.9)?
Answer: 2.706

Question: And the “Percent Growth” value (HT29; Log 10 Concentration −6.9)?
Answer: 88%

Question: And the “Mean Optical Densities” value (HT29; Log 10 Concentration −7.9)?
Answer: 2.988

Question: And the “Percent Growth” value (HT29; Log 10 Concentration −7.9)?
Answer: 98%

Question: What about the “Mean Optical Densities” value (HT29; Log 10 Concentration −8.9) of the same substance?
Answer: 3.189

Question: What about the “Percent Growth” value (HT29; Log 10 Concentration −8.9) of the same substance?
Answer: 104%

Question: And the CC50 (HT29; [1])?
Answer: > 12.6 µM
